Experimental data reported in ChEMBL document CHEMBL1201862, “PubChem BioAssay data set” (2004).
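Exposure lasted 48 hours, with cells grown in 96-well plates and compounds tested at five concentrations. Here, GI50 denotes the concentration required for 50% inhibition of growth.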 Activity calls are given as the source filed them. Cut-off read from the data, not from the text of the source: active = GI50 up to about 1.1 µM and inactive = higher.

Tests used:
Test in all cases: NCI tumour cell line growth inhibition, 48 h
[1] = tested on: ACHN
[2] = tested on: EKVX
[3] = tested on: HCT-116
[4] = tested on: HOP-62
[5] = tested on: Hs-578T
[6] = tested on: K562
[7] = tested on: M14
[8] = tested on: MCF7
[9] = tested on: NCI-H23
[10] = tested on: NCI-H460
[11] = tested on: NCI-H522
[12] = tested on: OVCAR-3
[13] = tested on: OVCAR-8
[14] = tested on: RXF 393
[15] = tested on: SF-268
[16] = tested on: SK-OV-3
[17] = tested on: UACC-257
[18] = tested on: UO-31
[19] = tested on: LOX IMVI
[20] = tested on: CCRF-CEM

Measured: GI50

CCOC(=O)[C@@H]1C[C@H]1c1ccc(O)c(O)c1
inactive: [1] 65.2 µM | [2] > 100 µM | [3] 14.4 µM | [4] 84.9 µM | [5] 28.4 µM | [6] 10.9 µM | [7] 34.8 µM | [8] 43.9 µM | [9] 4.74 µM | [10] 58.2 µM | [11] 16.4 µM | [12] 29 µM | [13] 37.9 µM | [14] 26.6 µM | [15] 67.6 µM | [16] 43.1 µM | [17] 19.9 µM | [18] 31.3 µM

CC(C)(/C=N/O)/[N+]([O-])=C/c1ccccc1
inactive: [1] > 100 µM | [2] > 100 µM | [3] > 100 µM | [4] > 100 µM | [5] > 100 µM | [19] > 100 µM | [7] > 100 µM | [8] > 100 µM | [9] > 100 µM | [10] > 100 µM | [12] > 100 µM | [13] > 100 µM | [14] > 100 µM | [15] > 100 µM | [16] > 100 µM | [17] > 100 µM | [18] > 100 µM

Cc1cccc(-c2cccc(COCc3cccc(-c4cccc(CO)n4)n3)n2)n1
inactive: [1] > 50 µM | [2] 35.5 µM | [3] > 50 µM | [4] > 50 µM | [5] 35.7 µM | [6] > 50 µM | [19] > 50 µM | [7] 34.4 µM | [8] 36.2 µM | [10] 43.8 µM | [11] > 50 µM | [12] 3.7 µM | [13] 16.2 µM | [15] > 50 µM | [16] > 50 µM | [17] 12.8 µM | [18] > 50 µM

C(/C=N/N=C1NCCCN1)=N\N=C1NCCCN1
inactive: [1] > 100 µM | [20] > 100 µM | [2] > 100 µM | [3] > 100 µM | [4] > 100 µM | [5] > 100 µM | [6] > 100 µM | [19] > 100 µM | [7] > 100 µM | [8] > 100 µM | [9] > 100 µM | [10] > 100 µM | [11] > 100 µM | [12] > 100 µM | [13] > 100 µM | [15] > 100 µM | [16] > 100 µM | [17] > 100 µM | [18] > 100 µM

O=C(COc1ccccc1)N(C(=O)N1CCN(c2ccccc2)CC1)S(=O)(=O)c1ccccc1
inactive: [1] > 100 µM | [20] 22.1 µM | [2] > 100 µM | [3] 44 µM | [4] 72.8 µM | [5] > 100 µM | [6] 33.8 µM | [19] 77.4 µM | [7] > 100 µM | [8] 45.9 µM | [9] > 100 µM | [10] 71.9 µM | [11] 31.9 µM | [12] 62.4 µM | [13] 35.2 µM | [15] 60.8 µM | [16] > 100 µM | [17] > 100 µM | [18] 94.6 µM

Cc1cc2ccc(N)nc2nc1O
inactive: [1] 52 µM | [2] > 100 µM | [3] > 100 µM | [5] > 100 µM | [7] > 100 µM | [8] > 100 µM | [9] > 100 µM | [10] > 100 µM | [11] 49.2 µM | [13] > 100 µM | [14] > 100 µM | [15] 92.9 µM | [16] > 100 µM | [17] > 100 µM | [18] > 100 µM

O=[N+]([O-])c1ccc2c(c1)N=C1OC(c3c[nH]c4ccc(COc5ccccc5)cc34)C(O)=C1N2 (stereo unspecified)
inactive: [1] > 100 µM | [2] > 100 µM | [3] 72.8 µM | [4] 60.3 µM | [5] > 100 µM | [6] 3.73 µM | [19] > 100 µM | [7] > 100 µM | [8] 55 µM | [9] > 100 µM | [10] > 100 µM | [11] 17.3 µM | [12] > 100 µM | [13] > 100 µM | [14] > 100 µM | [15] > 100 µM | [16] 98.9 µM | [17] 33.7 µM | [18] > 100 µM

CC1(C)OC2CN(C(=O)OCc3ccccc3)C(CO)C2O1 (stereo unspecified)
inactive: [1] > 100 µM | [2] > 100 µM | [3] > 100 µM | [4] > 100 µM | [5] > 100 µM | [6] > 100 µM | [19] > 100 µM | [7] > 100 µM | [8] > 100 µM | [9] > 100 µM | [10] > 100 µM | [11] > 100 µM | [12] > 100 µM | [13] > 100 µM | [14] > 100 µM | [15] > 100 µM | [16] > 100 µM | [17] > 100 µM | [18] > 100 µM

Cc1nc2ccccc2n1COC(Cn1ccnc1)c1ccc(Cl)cc1Cl (stereo unspecified)
inactive: [1] 34.8 µM | [20] 88.9 µM | [2] 7.1 µM | [3] 53.7 µM | [4] 57.3 µM | [5] 81.7 µM | [6] 42.8 µM | [19] 50.8 µM | [7] > 100 µM | [8] 41.7 µM | [9] 55.8 µM | [10] 15.3 µM | [11] > 100 µM | [12] 41.4 µM | [13] 94 µM | [15] 78.3 µM | [17] 31 µM | [18] 25.6 µM

Nc1ccccc1C(=O)CC1OC(=O)c2ccccc21 (stereo unspecified)
inactive: [1] > 100 µM | [2] 34.9 µM | [3] 51.6 µM | [4] 91 µM | [5] 46.8 µM | [6] > 100 µM | [19] 52.8 µM | [7] > 100 µM | [8] > 100 µM | [10] 61.2 µM | [11] > 100 µM | [12] 78.3 µM | [13] 51.5 µM | [15] 69.3 µM | [16] > 100 µM | [17] > 100 µM | [18] > 100 µM

O=S(=O)(O)c1ccc(/N=N/c2ccc(/N=N/c3c(O)ccc4ccccc34)c(S(=O)(=O)O)c2)cc1
inactive: [1] > 100 µM | [20] > 100 µM | [2] > 100 µM | [3] > 100 µM | [4] > 100 µM | [5] > 100 µM | [6] > 100 µM | [7] > 100 µM | [8] > 100 µM | [9] > 100 µM | [10] > 100 µM | [11] > 100 µM | [12] > 100 µM | [13] > 100 µM | [14] > 100 µM | [15] > 100 µM | [16] > 100 µM | [17] > 100 µM | [18] > 100 µM

O=C(c1ccc(Cl)cc1)N(C(=S)OC12CC3CC(CC(C3)C1)C2)c1ccccc1
inactive: [1] 34.8 µM | [20] 16.3 µM | [2] 26.6 µM | [3] 33.5 µM | [4] 45.5 µM | [5] 39.9 µM | [6] 29.8 µM | [7] 34 µM | [8] 33.3 µM | [9] 35.6 µM | [10] 30 µM | [11] 21.1 µM | [12] 44.6 µM | [13] 39.2 µM | [14] 99.8 µM | [15] 43.3 µM | [16] 53.1 µM | [17] 46.6 µM | [18] 27 µM

O=C1/C(=C/c2ccccc2)CCCc2ccccc21
inactive: [1] 20.8 µM | [20] 15.7 µM | [2] 19.5 µM | [3] 16.8 µM | [4] 19.2 µM | [5] 21.9 µM | [6] 19.2 µM | [19] 18.4 µM | [7] 20.1 µM | [8] 17.4 µM | [9] 17.5 µM | [10] 16 µM | [11] 21.1 µM | [12] 18.4 µM | [13] 20.4 µM | [15] 17.7 µM | [16] 38.2 µM | [17] 15.7 µM | [18] 17.6 µM

COc1cc2c(cc1OCCCCOc1cc3c(cc1OC)C(=O)N1CCC[C@H]1C(=O)N3)N=C[C@@H]1CCCN1C2=O
inactive: [1] 14.7 µM | [2] 12.5 µM | [3] 16.8 µM | [4] 10.9 µM | [5] 10.3 µM | [6] 2.28 µM | [19] 1.99 µM | [7] 12.9 µM | [8] 2.72 µM | [9] 12.8 µM | [10] 15.8 µM | [11] 1.12 µM | [12] 11.5 µM | [13] 14.7 µM | [14] 3.59 µM | [15] 3.82 µM | [17] 14.9 µM | [18] 14.8 µM

CC[C@H](CC[C@@H](C)[C@H]1CC[C@H]2[C@@H]3CC=C4C[C@@H](O)CC[C@]4(C)[C@H]3CC[C@]12C)C(C)C [BETA-SITOSTEROL]
inactive: [1] > 100 µM | [20] > 100 µM | [2] > 100 µM | [3] > 100 µM | [4] > 100 µM | [5] > 100 µM | [6] > 100 µM | [19] > 100 µM | [7] > 100 µM | [8] > 100 µM | [9] > 100 µM | [10] > 100 µM | [11] > 100 µM | [12] > 100 µM | [13] > 100 µM | [15] > 100 µM | [17] > 100 µM | [18] > 100 µM
